We go through 22 compounds from patent US20180099931A1 (AbbVie S.à.r.l., priority 2016, published 2018).

The test addresses T1, F508delCFTR (Homo sapiens, UniProt P13569, DEL508-508).
T1 construct: expressed in transfected cells; host or cells: CFBE41o- human lung-derived epithelial cells (CFBE4lo-F508delCFTR-HRP), doxycycline-inducible
The test is described as follows: Cell Surface Expression-Horse Radish Peroxidase (CSE-HRP) Assay.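 As to Maximum % activity (with co-corrector): co-corrector and positive control are both the same reference corrector at 2 µM.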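 As to Maximum % activity (without co-corrector): percent of the 2 µM on-plate positive control corrector response above DMSO.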 Conditions: for Emax / Maximum % activity (with co-corrector): maximum at any tested concentration, normalized to on-plate positive control; for Emax: read-out: Maximum % activity (without co-corrector). In kind it is cell-based. The protocol:
Cell Surface Expression-Horse Radish Peroxidase (CSE-HRP) Assay;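 as to Maximum % activity (with co-corrector): co-corrector and positive control are both the same reference corrector at 2 µM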;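 as to Maximum % activity (without co-corrector): percent of the 2 µM on-plate positive control corrector response above DMSO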
The development was achieved by expressing the F508delCFTR mutation along with a horseradish peroxidase (HRP) in the fourth exofacial loop, and then measuring the HRP activity using luminescence readout from these cells, CFBE4lo-F508delCFTR-HRP, that were incubated overnight with the test corrector compounds, either without or with the co-corrector. […] The test compounds were then added either without or with a co-corrector at the required concentrations and further incubated for 18-24 hours at 33° C. The highest concentration tested was 20 μM with an 8-point concentration response curve using a 3-fold dilution in both the test compound without or with the co-corrector. Three replicate plates were run to determine one EC50. All plates contained negative controls (dimethyl sulfoxide, DMSO) and positive control (2 μM of 3-[(2R,4R)-4-({[1-(2,2-difluoro-1,3-benzodioxol-5-yl)cyclopropyl]carbonyl}amino)-7-methoxy-3,4-dihydro-2H-chromen-2-yl]benzoic acid) as well as on-plate concentration response of the positive control. […] The raw counts from the experiment were analyzed using Accelrys® Assay Explorer v3.3.
1−[3*SDPositive Control+3*SDNegative Control/Absolute(MeanPositive Control−MeanNegative Control)]
wherein “SD” is standard deviation.
The % activity measured at each of the 8 test concentrations of the test compound added either without or with a co-corrector (2 μM of 3-[(2R,4R)-4-({[1-(2,2-difluoro-1,3-benzodioxol-5-yl)cyclopropyl]carbonyl}amino)-7-methoxy-3,4-dihydro-2H-chromen-2-yl]benzoic acid) was normalized to the on-plate positive control using the following formulae:
% activity(Test compound without co-corrector)=[(test compound without co-corrector response−DMSO response)/(positive control response−DMSO response)]*100
% activity(Test compound with co-corrector)=[(test compound with co-corrector response−DMSO response)/(positive control response−DMSO response)]*100
The maximum % activity achieved for the test compound either without or with a co-corrector at any tested concentration is presented in Table 4 along with the respective EC50's calculated using the following general sigmoidal curve with variable Hill slope equation (described as Model 42 in the Accelrys® Assay Explorer v3.3 software):
General sigmoidal curve with concentration, response, top, bottom, EC50 and Hill slope. This model describes a sigmoidal curve with an adjustable baseline, a. The equation can be used to fit curves where response is either increasing or decreasing with respect to the independent variable, “x”.
“x” is a concentration of drug under test. “y” is the response. “a” is the maximum response, and “d” is the minimum response “c” is the inflection point (EC50) for the curve. That is, “y” is halfway between the lower and upper asymptotes when x=c. “b” is the slope-factor or Hill coefficient. The sign of b is positive when the response increases with increasing dose and is negative when the response decreases with increasing dose (inhibition).

Where [1] appears, read: test compound without co-corrector.
Where [2] appears, read: test compound without co-corrector, read-out: EC50 (without co-corrector).
Setting [3] is: with co-corrector (2 μM of 3-[(2R,4R)-4-({[1-(2,2-difluoro-1,3-benzodioxol-5-yl)cyclopropyl]carbonyl}amino)-7-methoxy-3,4-dihydro-2H-chromen-2-yl]benzoic acid).
Setting [4] is: with co-corrector (2 μM of 3-[(2R,4R)-4-({[1-(2,2-difluoro-1,3-benzodioxol-5-yl)cyclopropyl]carbonyl}amino)-7-methoxy-3,4-dihydro-2H-chromen-2-yl]benzoic acid), read-out: EC50 (with co-corrector).

Each structure is given as a SMILES string. Where two headings read alike, the source gives them in different places.

T1 sequence (P13569 with tags, fused parts or gaps DEL508-508): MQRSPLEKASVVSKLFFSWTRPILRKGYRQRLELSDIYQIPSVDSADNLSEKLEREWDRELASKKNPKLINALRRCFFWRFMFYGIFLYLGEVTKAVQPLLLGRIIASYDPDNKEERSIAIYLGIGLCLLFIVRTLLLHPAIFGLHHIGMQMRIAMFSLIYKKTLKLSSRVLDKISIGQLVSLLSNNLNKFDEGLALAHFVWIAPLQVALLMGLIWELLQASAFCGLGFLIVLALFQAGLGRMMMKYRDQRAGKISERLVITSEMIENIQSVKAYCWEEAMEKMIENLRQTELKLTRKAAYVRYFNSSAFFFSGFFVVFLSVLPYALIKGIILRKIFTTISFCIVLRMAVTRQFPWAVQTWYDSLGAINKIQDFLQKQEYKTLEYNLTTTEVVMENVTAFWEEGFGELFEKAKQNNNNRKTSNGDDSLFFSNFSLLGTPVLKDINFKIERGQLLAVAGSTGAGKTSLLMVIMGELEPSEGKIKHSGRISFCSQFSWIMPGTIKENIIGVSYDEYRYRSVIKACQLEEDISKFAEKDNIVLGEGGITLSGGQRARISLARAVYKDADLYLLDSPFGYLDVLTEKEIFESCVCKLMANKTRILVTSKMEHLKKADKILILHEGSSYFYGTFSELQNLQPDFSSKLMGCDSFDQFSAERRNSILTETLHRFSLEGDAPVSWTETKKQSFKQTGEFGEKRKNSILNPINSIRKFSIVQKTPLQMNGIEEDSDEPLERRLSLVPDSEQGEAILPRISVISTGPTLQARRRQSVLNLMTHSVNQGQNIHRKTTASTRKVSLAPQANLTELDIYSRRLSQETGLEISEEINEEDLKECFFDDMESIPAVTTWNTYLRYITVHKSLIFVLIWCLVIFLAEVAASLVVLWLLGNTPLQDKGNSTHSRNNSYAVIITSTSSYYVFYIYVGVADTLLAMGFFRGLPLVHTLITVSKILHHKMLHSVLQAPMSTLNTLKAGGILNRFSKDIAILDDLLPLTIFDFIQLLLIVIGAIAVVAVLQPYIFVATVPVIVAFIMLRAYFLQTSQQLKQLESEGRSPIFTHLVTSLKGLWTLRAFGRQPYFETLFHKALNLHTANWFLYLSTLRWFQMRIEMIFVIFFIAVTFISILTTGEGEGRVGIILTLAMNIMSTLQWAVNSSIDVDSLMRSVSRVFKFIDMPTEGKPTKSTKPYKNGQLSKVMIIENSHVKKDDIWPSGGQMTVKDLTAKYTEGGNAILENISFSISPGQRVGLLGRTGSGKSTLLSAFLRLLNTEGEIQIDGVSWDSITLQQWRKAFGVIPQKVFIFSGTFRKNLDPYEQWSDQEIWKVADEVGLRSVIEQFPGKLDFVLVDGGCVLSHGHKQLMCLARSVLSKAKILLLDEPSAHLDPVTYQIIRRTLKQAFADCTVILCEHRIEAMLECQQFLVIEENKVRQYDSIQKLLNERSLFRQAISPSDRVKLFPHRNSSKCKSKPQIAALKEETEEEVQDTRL

`CC(C)(C)[C@@H]1[C@@H](NCc2cccc(OC3CCOCC3)n2)[C@@H](c2ccccc2)N(C(=O)C2CCCCC2)[C@H]1C(=O)O` (racemic) [III-10]: the Emax under setting [1] was below 100%. The EC50 is above 10 µM under setting [2] and 1 to 10 µM under setting [4]. Also, the “Maximum % activity (with co-corrector)” value under setting [3] was “++ (≥150 and <350)”.
Regarding `COc1ccc(OC)c(CN[C@@H]2[C@@H](C(C)(C)C)[C@H](C(=O)O)N(C(=O)C3CCCCC3)[C@@H]2c2ccccc2)c1` (racemic) [III-11], the Emax under setting [1] was below 100%. Further, the concentration giving a half-maximal response (EC50) lay within 1 to 10 µM under setting [2] and 1 to 10 µM under setting [4]. Besides, the “Maximum % activity (with co-corrector)” value under setting [3] was “++ (≥150 and <350)”.
Turning to `COc1ccccc1CN[C@@H]1[C@@H](C(C)(C)C)[C@H](C(=O)O)N(C(=O)C2CCCCC2)[C@@H]1c1ccccc1` (racemic) [III-12], under setting [1], the Emax was below 100%. Also, the EC50 by setting is: under setting [2], 1 to 10 µM; under setting [4], 1 to 10 µM. Also, the “Maximum % activity (with co-corrector)” value under setting [3] was “+++ (≥350)”.
In the case of `COc1cccc(CN[C@@H]2[C@@H](C(C)(C)C)[C@H](C(=O)O)N(C(=O)C3CCCCC3)[C@@H]2c2ccccc2)c1OC` (racemic) [III-13], the Emax under setting [1] was below 100%. Besides, the half-maximal effective concentration (EC50) under setting [2] was above 10 µM and the EC50 under setting [4] is above 10 µM. The “Maximum % activity (with co-corrector)” value under setting [3] is listed as “+ (<150)”.
`COc1cccc(CN[C@@H]2[C@@H](C(C)(C)C)[C@H](C(=O)O)N(C(=O)C3CCCCC3)[C@@H]2c2ccccc2)c1` (racemic) [III-14]: the Emax under setting [1] is below 100%. Moreover, the EC50 under setting [2] was above 10 µM and the EC50 under setting [4] is 1 to 10 µM. Also, the “Maximum % activity (with co-corrector)” value under setting [3] was “++ (≥150 and <350)”.
Regarding `COc1ccc(CN[C@@H]2[C@@H](C(C)(C)C)[C@H](C(=O)O)N(C(=O)C3CCCCC3)[C@@H]2c2ccccc2)c(OC)c1Cl` (racemic) [III-15], under setting [1], the Emax was below 100%. Further, the 50% effective concentration (EC50) by setting is: under setting [2], 1 to 10 µM; under setting [4], below 1 µM. For the same compound, the “Maximum % activity (with co-corrector)” value under setting [3] was “++ (≥150 and <350)”.
On to `COc1ccncc1CN[C@@H]1[C@@H](C(C)(C)C)[C@H](C(=O)O)N(C(=O)C2CCCCC2)[C@@H]1c1ccccc1` (racemic) [III-16], for which the Emax under setting [1] was below 100%. Moreover, the 50% effective concentration (EC50) was above 10 µM under setting [2] and above 10 µM under setting [4]. In addition, the “Maximum % activity (with co-corrector)” value under setting [3] is listed as “+ (<150)”.
As to `COc1cc(C(F)(F)F)cc(N(C)[C@@H]2[C@@H](C(C)(C)C)[C@H](C(=O)O)N(C(=O)C3CCCCC3)[C@@H]2c2ccccc2)n1` (racemic) [III-17], under setting [1], the Emax is below 100%. Moreover, the concentration giving a half-maximal response (EC50) is, setting by setting: under setting [2], above 10 µM; under setting [4], 1 to 10 µM. Also, under setting [3], the “Maximum % activity (with co-corrector)” value was “++ (≥150 and <350)”.
Regarding `COc1cccc(CN[C@@H]2[C@@H](C(C)(C)C)[C@H](C(=O)O)N(C(=O)C3CCCCC3)[C@@H]2c2ccccc2)n1` (racemic) [III-19], under setting [1], the Emax is below 100%. Further, the half-maximal effective concentration (EC50) by setting is: under setting [2], 1 to 10 µM; under setting [4], 1 to 10 µM. Also, the “Maximum % activity (with co-corrector)” value under setting [3] was “++ (≥150 and <350)”.
`COc1cc(OC)c(CN[C@@H]2[C@@H](C(C)(C)C)[C@H](C(=O)O)N(C(=O)C3CCCCC3)[C@@H]2c2ccccc2)cc1Cl` (racemic) [III-20]: under setting [1], the Emax is below 100%. In addition, the 50% effective concentration (EC50) was 1 to 10 µM under setting [2] and 1 to 10 µM under setting [4]. Under setting [3], the “Maximum % activity (with co-corrector)” value was “++ (≥150 and <350)”.
Regarding `COc1cccnc1CN[C@@H]1[C@@H](C(C)(C)C)[C@H](C(=O)O)N(C(=O)C2CCCCC2)[C@@H]1c1ccccc1` (racemic) [III-21], the Emax under setting [1] is below 100%. Also, the EC50 is, setting by setting: under setting [2], above 10 µM; under setting [4], 1 to 10 µM. In addition, the “Maximum % activity (with co-corrector)” value under setting [3] was “++ (≥150 and <350)”.
As for `COc1ccnc(CN[C@@H]2[C@@H](C(C)(C)C)[C@H](C(=O)O)N(C(=O)C3CCCCC3)[C@@H]2c2ccccc2)n1` (racemic) [III-22], under setting [1], the Emax was below 100%. Besides, the concentration giving a half-maximal response (EC50) was above 10 µM under setting [2] and above 10 µM under setting [4]. Moreover, the “Maximum % activity (with co-corrector)” value under setting [3] was “+ (<150)”.
`CC(C)(C)[C@@H]1[C@@H](Nc2cc(C(F)(F)F)cc(=O)[nH]2)[C@@H](c2ccccc2)N(C(=O)C2CCCCC2)[C@H]1C(=O)O` (racemic) [III-23]: the Emax under setting [1] was below 100%. For the same compound, the concentration giving a half-maximal response (EC50) was above 10 µM under setting [2] and above 10 µM under setting [4]. Also, the “Maximum % activity (with co-corrector)” value under setting [3] is given as “+ (<150)”.
Regarding `COCCn1ccnc1CN[C@@H]1[C@@H](C(C)(C)C)[C@H](C(=O)O)N(C(=O)C2CCCCC2)[C@@H]1c1ccccc1` (racemic) [III-24], the Emax under setting [1] is below 100%. Further, the concentration giving a half-maximal response (EC50) under setting [2] was above 10 µM and the EC50 under setting [4] was above 10 µM. In addition, the “Maximum % activity (with co-corrector)” value under setting [3] is on record as “+ (<150)”.
Regarding `COc1ccc(CN[C@@H]2[C@@H](C(C)(C)C)[C@H](C(=O)O)N(C(=O)C3CCCCC3)[C@@H]2c2ccccc2)cn1` (racemic) [III-25], the Emax under setting [1] is below 100%. Also, the EC50 runs as follows: under setting [2], above 10 µM; under setting [4], 1 to 10 µM. Moreover, the “Maximum % activity (with co-corrector)” value under setting [3] was “++ (≥150 and <350)”.
Consider `COc1ccc(Cl)cc1CN[C@@H]1[C@@H](C(C)(C)C)[C@H](C(=O)O)N(C(=O)C2CCCCC2)[C@@H]1c1ccccc1` (racemic) [III-27], for which the Emax under setting [1] is above 200%. The EC50 lay in the range of 1 to 10 µM under setting [2] and 1 to 10 µM under setting [4]. Besides, under setting [3], the “Maximum % activity (with co-corrector)” value was “+++ (≥350)”.
Consider `CC(C)(C)[C@@H]1[C@@H](NCc2cccnc2N2CCOCC2)[C@@H](c2ccccc2)N(C(=O)C2CCCCC2)[C@H]1C(=O)O` (racemic) [III-28], for which, under setting [1], the Emax was below 100%. In addition, the EC50 reads like this: under setting [2], 1 to 10 µM; under setting [4], 1 to 10 µM. Besides, under setting [3], the “Maximum % activity (with co-corrector)” value is “++ (≥150 and <350)”.
On to `COc1ncc(CN[C@@H]2[C@@H](C(C)(C)C)[C@H](C(=O)O)N(C(=O)C3CCCCC3)[C@@H]2c2ccccc2)c(OC)n1` (racemic) [III-29], for which, under setting [1], the Emax was below 100%. Further, the EC50 under setting [2] was 1 to 10 µM and the EC50 under setting [4] fell in the range of 1 to 10 µM. Besides, the “Maximum % activity (with co-corrector)” value under setting [3] was “++ (≥150 and <350)”.
As for `COc1cc(Cl)ccc1CN[C@@H]1[C@@H](C(C)(C)C)[C@H](C(=O)O)N(C(=O)C2CCCCC2)[C@@H]1c1ccccc1` (racemic) [III-30], under setting [1], the Emax was above 200%. In addition, the EC50 was 1 to 10 µM under setting [2] and 1 to 10 µM under setting [4]. Further, the “Maximum % activity (with co-corrector)” value under setting [3] is reported as “+++ (≥350)”.
For the compound `CC(C)(C)[C@@H]1[C@@H](Nc2cc(C(F)(F)F)cc[n+]2[O-])[C@@H](c2ccccc2)N(C(=O)C2CCCCC2)[C@H]1C(=O)O` (racemic) [III-31], the Emax under setting [1] was below 100%. Besides, the concentration for a half-maximal effect (EC50) is, setting by setting: under setting [2], above 10 µM; under setting [4], 1 to 10 µM. Besides, the “Maximum % activity (with co-corrector)” value under setting [3] is “++ (≥150 and <350)”.
Regarding `Cc1cc(C(F)(F)F)cc(N[C@@H]2[C@@H](C(C)(C)C)[C@H](C(=O)O)N(C(=O)C3CCCCC3)[C@@H]2c2ccccc2)[n+]1[O-]` (racemic) [III-32], the Emax under setting [1] was below 100%. The EC50 was in the range of 1 to 10 µM under setting [2] and 1 to 10 µM under setting [4]. Under setting [3], the “Maximum % activity (with co-corrector)” value was “++ (≥150 and <350)”.
On to `O=C(O)[C@H]1[C@H](C2CC2)[C@@H](Nc2cc(C(F)(F)F)ccn2)[C@@H](c2ccccc2)N1C(=O)C1CCCCC1` (racemic) [III-33], for which the Emax under setting [1] is below 100%. The EC50 under setting [2] lay within 1 to 10 µM and the EC50 under setting [4] fell in the range of 1 to 10 µM. The “Maximum % activity (with co-corrector)” value under setting [3] was “++ (≥150 and <350)”.

In general, EC50 refers to the concentration that produces a half-maximal response.
